Test results taken from PubChem BioAssay (NCI).
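Five concentrations, 48 hours, 96-well plates. The concentration for full growth arrest is given as TGI.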

Experiments:
Experiment in all cases: DTP human tumour cell line panel, 48 h
[1] = tested on: HCC-2998 colon
[2] = tested on: SNB-75 CNS
[3] = tested on: SK-MEL-28 melanoma
[4] = tested on: OVCAR-8 ovarian
[5] = tested on: A498 renal
[6] = tested on: 786-0 renal
[7] = tested on: MDA-MB-435
[8] = tested on: UACC-257 melanoma
[9] = tested on: SF-295 CNS
[10] = tested on: HT29 colon
[11] = tested on: HCT-116 colon
[12] = tested on: EKVX NSCLC
[13] = tested on: ACHN renal
[14] = tested on: SK-MEL-2 melanoma
[15] = tested on: HL-60(TB) leukemia
[16] = tested on: HOP-92 NSCLC
[17] = tested on: SF-539 CNS
[18] = tested on: NCI-H226 lung
[19] = tested on: SF-268 CNS
[20] = tested on: HOP-62 NSCLC
[21] = tested on: M14 melanoma
[22] = tested on: PC-3 prostate
[23] = tested on: SW-620 colon
[24] = tested on: KM12 colon
[25] = tested on: U251 CNS
[26] = tested on: DU-145 prostate
[27] = tested on: NCI-H460 lung
[28] = tested on: SK-MEL-5 melanoma
[29] = tested on: IGROV1 ovarian
[30] = tested on: UACC-62 melanoma
[31] = tested on: OVCAR-3 ovarian
[32] = tested on: K-562 leukemia
[33] = tested on: SNB-19 CNS
[34] = tested on: MCF7 breast
[35] = tested on: NCI/ADR-RES ovarian
[36] = tested on: HCT-15 colon
[37] = tested on: SK-OV-3 ovarian
[38] = tested on: A549 NSCLC
[39] = tested on: TK-10 renal
[40] = tested on: LOX IMVI melanoma
[41] = tested on: NCI-H23 lung
[42] = tested on: SR leukemia
[43] = tested on: T-47D breast
[44] = tested on: MDA-N
[45] = tested on: NCI-H522 lung
[46] = tested on: MALME-3M melanoma
[47] = tested on: COLO 205 colon
[48] = tested on: CAKI-1 renal
[49] = tested on: SN12C renal
[50] = tested on: OVCAR-5 ovarian
[51] = tested on: MDA-MB-231 breast
[52] = tested on: BT-549 breast
[53] = tested on: RPMI-8226 leukemia
[54] = tested on: RXF 393 renal
[55] = tested on: HS 578T breast
[56] = tested on: CCRF-CEM leukemia
[57] = tested on: UO-31 renal

Which TGI [1] does the source give for `CC1(C)CSCC(C)(C)C(=N/N)/C1=N\N` here?
Its TGI is greater than 100 µM.

And the TGI [2]?
The TGI was greater than 100 µM.

And the TGI [3]?
Its TGI is greater than 100 µM.

What about the TGI [4] of the same compound?
The TGI was greater than 100 µM.

And the TGI [5]?
The TGI was greater than 100 µM.

And the TGI [6]?
Its TGI is greater than 100 µM.

And the TGI [7]?
The TGI was greater than 100 µM.

What about the TGI [8] of the same compound?
The TGI was greater than 100 µM.

And the TGI [9]?
The TGI was greater than 100 µM.

What about the TGI [10] of the same compound?
Its TGI is greater than 100 µM.

And the TGI [11]?
Its TGI is greater than 100 µM.

What about the TGI [12] of the same compound?
The TGI was greater than 100 µM.

What about the TGI [13] of the same compound?
The TGI was greater than 100 µM.

And the TGI [14]?
The TGI was greater than 100 µM.

And the TGI [15]?
Its TGI is greater than 100 µM.

And the TGI [16]?
Its TGI is greater than 100 µM.

What about the TGI [17] of the same compound?
The TGI was greater than 100 µM.

And the TGI [18]?
The TGI was greater than 100 µM.

And the TGI [19]?
Its TGI is greater than 100 µM.

What about the TGI [20] of the same compound?
The TGI was greater than 100 µM.

And the TGI [21]?
Its TGI is greater than 100 µM.

And the TGI [22]?
Its TGI is greater than 100 µM.

What about the TGI [23] of the same compound?
Its TGI is greater than 100 µM.

What about the TGI [24] of the same compound?
Its TGI is greater than 100 µM.

And the TGI [25]?
The TGI was greater than 100 µM.

What about the TGI [26] of the same compound?
Its TGI is greater than 100 µM.

What about the TGI [27] of the same compound?
Its TGI is greater than 100 µM.

And the TGI [28]?
The TGI was greater than 100 µM.

And the TGI [29]?
Its TGI is greater than 100 µM.

And the TGI [30]?
Its TGI is greater than 100 µM.

What about the TGI [31] of the same compound?
The TGI was greater than 100 µM.

What about the TGI [32] of the same compound?
Its TGI is greater than 100 µM.

What about the TGI [33] of the same compound?
Its TGI is greater than 100 µM.

And the TGI [34]?
The TGI was greater than 100 µM.

What about the TGI [35] of the same compound?
Its TGI is greater than 100 µM.

And the TGI [36]?
Its TGI is greater than 100 µM.

What about the TGI [37] of the same compound?
The TGI was greater than 100 µM.

And the TGI [38]?
The TGI was greater than 100 µM.

What about the TGI [39] of the same compound?
Its TGI is greater than 100 µM.

What about the TGI [40] of the same compound?
Its TGI is greater than 100 µM.

And the TGI [41]?
The TGI was greater than 100 µM.

What about the TGI [42] of the same compound?
Its TGI is greater than 100 µM.

And the TGI [43]?
Its TGI is greater than 100 µM.

And the TGI [44]?
Its TGI is greater than 100 µM.

And the TGI [45]?
Its TGI is greater than 100 µM.

What about the TGI [46] of the same compound?
The TGI was greater than 100 µM.

And the TGI [47]?
The TGI was greater than 100 µM.

What about the TGI [48] of the same compound?
The TGI was greater than 100 µM.

What about the TGI [49] of the same compound?
Its TGI is greater than 100 µM.

And the TGI [50]?
The TGI was greater than 100 µM.

What does the source list for `CC(C)(C)C1CCC2c3c([nH]c4ccccc34)C3C(=O)N(c4ccc(C(=O)O)cc4)C(=O)C3C2C1` (centres undefined)?
TGI [1]: 29 µM; TGI [3]: 30.3 µM; TGI [4]: 26.6 µM; TGI [5]: 34.6 µM; TGI [6]: 29.1 µM; TGI [7]: 11.1 µM; TGI [51]: 29.2 µM; TGI [52]: 30.1 µM; TGI [8]: 28.3 µM; TGI [9]: 23.4 µM; TGI [10]: 28.7 µM; TGI [11]: 29.7 µM; TGI [12]: 39.7 µM; TGI [13]: 24.5 µM; TGI [14]: 29.1 µM; TGI [15]: 15.4 µM; TGI [16]: 25.7 µM; TGI [17]: 34.8 µM; TGI [18]: 40.3 µM; TGI [53]: > 100 µM; TGI [19]: 28.4 µM; TGI [20]: 15.8 µM; TGI [21]: 37.3 µM; TGI [22]: 26.3 µM; TGI [23]: 26.5 µM; TGI [54]: 29.5 µM; TGI [55]: 39 µM; TGI [25]: 26.2 µM; TGI [26]: 34.7 µM; TGI [27]: 35.4 µM; TGI [28]: 25.7 µM; TGI [29]: 40.1 µM; TGI [30]: 30.4 µM; TGI [31]: 25.8 µM; TGI [32]: 17.9 µM; TGI [33]: 34.6 µM; TGI [34]: 26.4 µM; TGI [35]: 36 µM; TGI [36]: 25 µM; TGI [37]: 32.1 µM; TGI [38]: 25.8 µM; TGI [39]: 31.3 µM; TGI [40]: 28.8 µM; TGI [41]: 40.8 µM; TGI [42]: > 100 µM; TGI [44]: 24.7 µM; TGI [45]: 41.6 µM; TGI [46]: 28.9 µM; TGI [47]: 40.4 µM; TGI [48]: 31 µM; TGI [49]: 25.6 µM; TGI [50]: 36.5 µM; TGI [56]: 12.5 µM; TGI [57]: 30.4 µM
